Tested on: souris de souche CDl
Assay: Hypobaric anoxia survival time test (Anoxie hypobare)
Format: in vivo
Details: Mus musculus, ip; mean active dose = dose increasing survival time by 100% vs controls, determined graphically; mice, i.p. before the test; 190 mm Hg (5,25% oxygen); read-out: Anoxie hypobare DAM - i.p.
Excerpt: Des souris de souche CDl sont maintenues dans une atmosphère appauvrie en oxygène, par réalisation d'un vide partiel (190mm de mercure correspondant à 5,25% d'oxygène).
Le temps de survie des animaux est noté. Ce temps est augmenté par les agents capables de favoriser l'oxygénation tissulaire et en particulier cérébrale. Les composés étudiés sont administrés, à plusieurs doses, par voie intrapéritonéale, […] avant l'essai. Les pourcentages d'augmentation du temps de survie par rapport aux valeurs obtenues chez les animaux témoins sont calculés. La dose active moyenne (DAM), dose qui augmente le temps de survie de 100% est déterminée graphiquement
Les résultats sont indiqués dans le tableau II suivant pour un nombre représentatif de composés.

| SMILES | ED (100% increase in survival time) [mg/kg] |
| --- | --- |
| CCOC(=O)C1=CC2(CC)CCCN3CCc4c(n1c1ccc(Br)cc41)C32 (stereo not drawn) [compound 18] | 7 |
| CCC12CCCN3CCc4c(n(c5ccc(Br)cc45)C(C(=O)NC)C1)C32 (stereo not drawn) [compound 7] | 2 |
| CCN(CC)C(=O)C1CC2(CC)CCCN3CCc4c(n1c1ccc(Br)cc41)C32 (stereo not drawn) [compound 8] | 4 |
| CCC12CCCN3CCc4c(n(c5ccc(Br)cc45)C(C(=O)OC)C1)C32 (stereo not drawn) [compound 2, bromo-10 désoxyvincamine] | 3 |
| CCCCOC(=O)C1(O)CC2(CC)CCCN3CCc4c(n1c1ccc(Br)cc41)C32 (stereo not drawn) [compound 13, bromo-10 vincaminate de n-butyle] | 3 to 4 |
| CCOC(=O)C1(O)CC2(CC)CCCN3CCc4c(n1c1ccc(Br)cc41)C32 (stereo not drawn) [compound 14] | 3 |
| CCC12CCCN3CCc4c(n(c5ccc(Br)cc45)C(C(N)=O)C1)C32 (stereo not drawn) [compound 6, Bromo-10 désoxyvincaminamide] | 1 |
| CCOC(=O)C1CC2(CC)CCCN3CCc4c(n1c1ccc(Br)cc41)C32 (stereo not drawn) [compound 4] | 1 |
| CCC12CCCN3CCc4c(n(c5ccc(Br)cc45)C(C(=O)OC(C)C)C1)C32 (stereo not drawn) [compound 5] | 3 |
| CCOC(=O)C1CC2(CC)CCCN3CCc4c(n1c1cccc(Br)c41)C32 (stereo not drawn) [compound 3] | 8 |
| CCC12CCCN3CCc4c(n(c5cccc(Br)c45)C(C(=O)OC)C1)C32 (stereo not drawn) [compound 1, bromo-9 désoxyvincamine] | 8 |
| CCC12CCCN3CCc4c(n(c5ccc(Br)cc45)C(C(=O)NC4CC4)C1)C32 (stereo not drawn) [compound 9] | 0.5 to 1 |
